Where no end group is shown, it is not given here.
Legend:
PU5-1.8 cells [1] = assay: DC-like surface marker expression on PU5-1.8 cells (FACS); type: cell-based, murine; details: 100 μg/ml, 24 hr, 10^5 PU5-1.8 cells
Protocol: (§1) 1×10^6 cells were washed with ice cold PBS and resuspended in 25 μl PBS and incubated with 10 μl normal mouse serum and fluorochrome conjugated anti-mouse D11a, CD11b, CD14, MHC class II, CD95, CD62L, CD62E, B7-1, B7-2 and ICAM-1 Pharmingen, Mississauga, Canada) monoclonal antibodies (mAb's) for 45 minutes on ice. endritic cell markers DEC-205, 33D1, CD11c (N418) unconjugated antibodies were imilarly treated, however, following primary antibody incubation,cells were washed 3 times and a secondary goat anti-rat (for 33D1 and DEC-205 ab's) and goat anti-hamster (for CD11c ab) fluorochrome-conjugated antibody was then added for 45 min on ice. Cells were then washed three times. All samples were resuspended in 300 μl PBS and the fluorescence of stained cells was analyzed on a FACScan flow cytometer (Becton Dickinson, Mountain View, Calif.) and data collected was analyzed using Lysis II (Becton-Dickinson) software.
(§2) Morphologically apoEp1.B-treated cells appeared DC-like. This was confirmed this by FACS analysis. Unprimed BALB/c splenocytes and PU5-1.8 cells were incubated for 24 hr with 100 μg/ml apoEp1.B or control peptide apoEp1.D and then stained for FACS analysis.
To assess whether apoEp1.B-induced phenotypic changes are dose-dependent, 10^5 PU5-1.8 cells were incubated for 20 hr with 0 (medium), 1, 10 or 100 μg/ml apoEp1.B in 24-well plates and were then stained for FACS analysis. […]

PU5-1.8 cells [2] = assay: DC marker changes (B7-1 FACS) of PU5-1.8 cells incubated with modified apoEp1.B peptides; type: cell-based, murine; details: 20 hours
Protocol: Murine monocytic PU5-1.8 and J77A1.4 transformed cell lines, human monoblastic leukemia THP-1 and U-937, and murine B cell lymphoma A20 cells were cultured in RPMI 1640 medium (Gibco Laboratories, Grand Island, N.Y.) containing […] 2ME, 10 mM HEPES, 2 mM glutamine, 5.0 IU/ml penicillin streptomycin (Gibco) and 10%. heat inactivated Fetal Bovine Serum (FBS) (Hyclone Laboratories Inc., Logan, Utah)(cRPMI).
as §1, with “software. […]” for “software.”

[3] = tested on: iliofemoral artery of the rat; assay: Balloon angioplasty injury model, plaque development in iliofemoral artery; type: in vivo; details: treated rats
Protocol: To investigate the role of apoEp1.B peptide in inflammation, particularly in response to arterial injury, a balloon angioplasty injury model which has been well characterized by Dr. Alex Lucas (Lucas et al. 1996 Circ. 94:2898-900) was used. 300 μg/ml of apoEp1 or apoEp1.B peptide were infused intra-arterially immediately prior to angioplasty at the site of injury in the iliofemoral artery of the rat. Positive control SERP-1 and negative control saline alone were also used. The rats were monitored carefully and euthanized 6 weeks after treatment and iliofemoral arteries were assessed for plaque development by histochemistry.

immune cells = assay: Activation and differentiation of immune cells; type: cell-based
[4] = tested on: BALB/c naive T cells co-cultured with NOD splenocytes; assay: Mixed leukocyte reaction, T cell allostimulatory activity of treated APC's; type: cell-based, mice; details: particularly at 4×10^3 APC's per well
Protocol: Primary allogeneic MLR was set up with NOD splenocytes as stimulators and nylon wool enriched BALB/c naive T cells as responders. Stimulator cells were pre-incubated for 3 days with different combinations of apoEp1.B, GM-CSF, and PU5-1.8 supernatant containing TNF. Stimulator cells were then treated with mitomycin C (50 μg/ml, 20 min at 37° C.; Sigma) and co-cultured with 4×10^4 responder for 3 days at which time cells were pulsed with 50 μl [^3H]-TdR (0.5 μCi/well) for 24 hr. Cells were harvested (Tomtec) and [^3H]-TdR incorporation was measured on a Microbeta Liquid Scintillation Counter (Wallac). Each bar represents the mean cpm from triplicate cultures.
To measure the T cell allostimulatory or inhibitory ability of these DC's, 4×10^4 enriched BALB/c naive T cells were co-cultured with 40, 400, 4000 and 40,000 mitomycin C-treated NOD splenocytes which had been incubated with various stimualants for 3 d. T cell proliferation was measured following 3 days of co-culture by [^3H]-TdR incorporation. Bars represent the mean of triplicate wells (cpm+/−S.D.). * and ** represent p<0.05 and p<0.001, respectively in 2-way ANOVA's compared to medium alone (nil) controls. […] Upon combining responder T cells with APC, various exogenous factors were added, including 20 μg/ml Con A and 5 μg/ml apoEp1.B. Very little proliferation was detected in wells containing T cells alone or APC alone.

[5] = tested on: Unprimed splenocytes, enriched spleen monocytes and monocytic PU5-1.8 and J77A4.1 cell lines; assay: Dendritic-like cell morphology in vitro; type: cell-based, BALB/c mice; details: after 2 hr, optimally at 100 μg/ml
Protocol: Unprimed splenocytes, enriched spleen monocytes and monocytic PU5-1.8 and J77A4.1 cell lines from BALB/c mice were incubated with 0, 1, 10, or 100 μg/ml apoEp1.B (239-252) or negative control apoEp1.D (236-249) peptide to assess activity. […] After 24 hr, morphologically these cells appeared less rounded, more granular.

splenocytes = assay: Surface marker expression on unprimed splenocytes (FACS); type: cell-based, mice; details: splenocytes (data not shown)
Protocol: as §1, §2
There were no changes in the expression of CD16/32 at any time.
Unprimed B6 and NOD splenocytes were incubated with 100 μg/ml apoEp1.B or apoEp1.D to determine whether apoEp1.B was strain-specific. […]

## AQQIRLQAEAFQAR (listed as Homo sapiens) [human apoEp1.B]
PU5-1.8 cells [1]
  cell clustering and marker increase compared to murine apoEp1.B: to a lesser degree
PU5-1.8 cells [2]; 100 μg/ml, PU5-1.8 cells
  effect on surface marker changes compared to apoEp1.B: slightly reduced effect

## TQQIRLQAEIFQAR [apoEp1.B, TQQIRLQAEIFQAR]
[3]
  adverse effects: No adverse effects were observed

## apoE: Human plasma VLDL purified apoE (Calbiochem) was used as native apoE
Immune cells
  induces activation and differentiation of immune cells: not

## GM-CSF: cytokine used to pre-incubate stimulator cells in MLR
[4]
  allostimulation after APC pre-incubation: dramatic increase in allostimulation

## apoEp1.D: negative control apoEp1.D (236-249) peptide (VAEVRAKLEEQAQQ; UniProt P02649 254-267, looked up, fragment)
[5]
  detachment from plastic plates and aggregation in suspension: not

## EEQ TQQ IRL QAE IFQ AR (EEQTQQIRLQAEIFQAR; Murine) [apoEp1]
Immune cells
  induces activation and differentiation of immune cells: does not induce DC's
splenocytes
  CD40 expression: increase in CD40
  L-selectin expression: decrease in L-selectin
PU5-1.8 cells [2]; Table 1 elongations and truncations, 100 μg/ml peptide, 10^5 PU5-1.8 cells, B7-1 stain, FACS
  DC Marker Changes: slight

Source: patent US6652860B1, “Peptide, apoEp 1.B, compositions and uses thereof” (University of Western Ontario, priority 1997, dated 2003)
